From US7414049B2, “4-oxo-2,3,4,5-tetrahydro-benzo[b][1,4]diazepine derivatives” (Hoffmann-La Roche Inc., priority 2006, dated 2008)
Values after ≈ are worked out from the molar mass of the structure shown.

Columns and labels:
[1] = Microsome incubation, metabolic stability (mouse); format: in vitro ADME; conditions: for microsomal CLint at 10 μM: pH 7.4, liver microsomes, test compound 10 μM, 37° C., read-out: Intrinsic clearance (mouse)
[2] = Microsome incubation, metabolic stability (human); format: in vitro ADME
Protocol: The compounds of formula I of the present invention are further characterized by high metabolic stability. This parameter is a prerequisite for good bioavailability, which is necessary to obtain medicaments with acceptable in-vivo activity. The metabolic stability has been tested by the following method:
Incubation mixtures consisted of liver microsomes (rat 1.0 mg prot/mL or human 2.0 mg prot/mL), test compound 10 μM, MgCl2 (3.3 mM), and an NADPH regenerating system consisting of glucose-6-phosphate dehydrogenase, NADPH and glucose-6-phosphate (equivalent to 1 mM NADPH) in a total volume of 1.0 mL of potassium phosphate buffer 100 mM pH 7.4. Reactions were initiated by addition of the NADPH regenerating system at 37° C. At the time of 1, 5, 9, 13, 17, 21, 25, and 29 min a 5 μL aliquot was directly analysed on a HPLC-MS/MS system consisting of a HP 1100 quaternary pump with degasser and a PE-Sciex API-2000 MS/MS spectrometer. The analytical column was a Waters Symmetry Shield RP8 (2.1*50 mm with a […] particle size). A polarity non linear gradient from phase A (MeOH/Ac. Form. 1% 20/80) to phase B (MeOH) was applied for a total run time of 2 minutes at a flow rate of 0.25 mL/min. The PE-Sciex API-2000 MS/MS spectrometer was used for detection of the parent compound. In vivo metabolic clearance was predicted according to published procedures [Houston, Biochem. Pharmacol. 47:1469-1479 (1994)]. In brief, the intrinsic clearance (Clearance, see table below) is calculated from the measured in vitro half-life taking into account incubation volume and microsomal protein used for the in vitro incubation. The intrinsic clearance is expressed in terms of μl/min/mg microsomal protein. For in vivo extrapolations, the hepatic extraction ratio (E) was calculated. Here it is reported the % MAB value which is equal to 1-E. The MAB (maximal achievable bioavailability) values express the maximal bioavailability that one can achieve with the given clearance values.

[3] = THESA assay, thermodynamic solubility; format: physicochemical; conditions: 22.5 °C, aqueous buffer, thermodynamic from solid, 50 mM phosphate buffer
Protocol: In addition, the compounds of the present invention have been tested in a THESA assay for determination of the thermodynamic solubility.
Approximately 2 mg of each compound was added in excess to a 50 mM phosphate buffer, at room temperature (22.5±1° C.). Each sample was placed in a microanalysis tube, which was sonicated for 1 h and agitated for 2 h. All suspensions were left overnight. At the next day all pHs were measured with a pH-meter and the samples filtered with a micronic filterplate (MSGVN2250) to separate the solid material from the solution. Then, all solutions were analyzed by HPLC. The calibration line was established by different concentrations of the compound in DMSO. From this regression equation the solubility of the compound was determined.

[4] = maximal achievable bioavailability = 1-E, extrapolated from intrinsic clearance

Row | SMILES | MAB (mouse) [1, 4] | microsomal CLint at 10 μM [1] | MAB (human) [2, 4] | solubility thermodynamic ([3]; room temperature (22.5±1° C.)) | microsomal CLint at 10 μM ([2]; pH 7.4, human liver microsomes 2.0 mg prot/mL, test compound 10 μM, 37° C., read-out: Intrinsic clearance (human)) | MAB (mouse) ([1]; comparison table) | MAB (human) ([2]; comparison table) | solubility thermodynamic ([3]; comparison table, room temperature)
1 | CC(O)(C(=O)NCC(F)(F)C(F)(F)F)C(=O)N[C@H]1CN(C(=O)OCC(F)(F)F)c2ccccc2NC1=O (single isomer, unassigned) [Example 10, (S)-3-[(R or S)-2-Hydroxy-2-(2,2,3,3,3-pentafluoro-propylcarbamoyl)-propionylamino]-4-oxo-2,3,4,5-tetrahydro-benzo[b][1,4]diazepine-1-carboxylic acid 2,2,2-trifluoro-ethyl ester and (S)-3-[(S or R)-2-Hydroxy-2-(2,2,3,3,3-pentafluoro-propylcarbamoyl)-propionylamino]-4-oxo-2,3,4,5-tetrahydro-benzo[b][1,4]diazepine-1-carboxylic acid 2,2,2-trifluoro-ethyl ester] | 85.5% | 5.4 µL/min/mg | 100.0% | 74 µg/mL (≈ 134 µM) |  |  |  | 
2 | CC(O)(C(=O)NCC(F)(F)C(F)(F)F)C(=O)N[C@H]1CN(CC(F)(F)F)c2ccccc2N(CCO)C1=O (single isomer, unassigned) [Example 9, (R or S)-2-Hydroxy-N-[(S)-1-(2-hydroxy-ethyl)-2-oxo-5-(2,2,2-trifluoro-ethyl)-2,3,4,5-tetrahydro-1H-benzo[b][1,4]diazepin-3-yl]-2-methyl-N′-(2,2,3,3,3-pentafluoro-propyl)-malonamide] | 32.7% | 65.2 µL/min/mg | 88.2% | 1780 µg/mL (≈ 3240 µM) | 2.1 µL/min/mg |  |  | 
3 | CC(O)(C(=O)NCC(F)(F)C(F)(F)F)C(=O)N[C@H]1CN(C(=O)OCC(F)(F)F)c2ccccc2N(CC(F)(F)F)C1=O (single isomer, unassigned) [Example 11] | 74.9% | 10.6 µL/min/mg | 100.0% |  |  | 74.9% | 100.0% | 37 µg/mL (≈ 58.5 µM)
4 | CC(O)(C(=O)NCC(F)(F)C(F)(F)F)C(=O)N[C@H]1CN(CCO)c2ccccc2N(CC(F)(F)F)C1=O (single isomer, unassigned) [Example 8, (R or S)-2-Hydroxy-N-[(S)-5-(2-hydroxy-ethyl)-2-oxo-1-(2,2,2-trifluoro-ethyl)-2,3,4,5-tetrahydro-1H-benzo[b][1,4]diazepin-3-yl]-2-methyl-N′-(2,2,3,3,3-pentafluoro-propyl)-malonamide] | 37.5% | 52.7 µL/min/mg | 100.0% | 2670 µg/mL (≈ 4850 µM) |  |  |  | 
